The text below walks through data of patent US20170275270A1, “BENZYL SUBSTITUTED INDAZOLES” (Bayer Pharma Aktiengesellschaft, priority 2014, published 2017).

Counter-ions that a name gives are not always drawn.

The first assay deals with T1, catalytic domain of human Bub1 (amino acids 704-1085) (Homo sapiens, UniProt O43683).
T1 construct: catalytic domain of human Bub1 (amino acids 704-1085); His6 (N); made in house; host or cells: Hi5 insect cells
T1 sequence (O43683 704-1085): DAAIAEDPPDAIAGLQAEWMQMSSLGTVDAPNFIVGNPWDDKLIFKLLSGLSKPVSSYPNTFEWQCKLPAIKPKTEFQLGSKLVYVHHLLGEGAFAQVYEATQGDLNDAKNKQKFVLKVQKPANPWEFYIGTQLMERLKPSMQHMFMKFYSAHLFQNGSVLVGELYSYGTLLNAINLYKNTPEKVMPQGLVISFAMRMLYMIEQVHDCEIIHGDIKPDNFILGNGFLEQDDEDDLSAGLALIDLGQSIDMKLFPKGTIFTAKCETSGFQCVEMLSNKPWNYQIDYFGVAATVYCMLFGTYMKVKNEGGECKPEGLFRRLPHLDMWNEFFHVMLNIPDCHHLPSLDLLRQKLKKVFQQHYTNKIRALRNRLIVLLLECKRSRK
The assay can be described thus: Bub1 kinase assay (TR-FRET). In kind it is biochemical. To be noted: 10 μM ATP, read-out: Biological Assay 1: Bub1 kinase assay median IC50. How it is done:
To this end, 100-fold concentrated compound solutions (in DMSO) were previously prepared by serial dilution (1:3.4) of 2 mM stocks in a clear low volume 384-well source microtiter plate (Greiner Bio-One, Frickenhausen, Germany), from which 50 nL of compounds were transferred into a black low volume test microtiter plate from the same supplier. […] The resulting mixture (5 μL final volume) was incubated at 22° C. during 60 min., and the reaction was stopped by the addition of 5 μL of an aqueous EDTA-solution (50 mM EDTA, in 100 mM HEPES pH 7.5 and 0.2% (w/v) bovine serum albumin) which also contained the TR-FRET detection reagents (0.2 μM streptavidin-XL665 [Cisbio Bioassays, Codolet, France] and 1 nM anti-phosho-Serine antibody [Merck Millipore, cat. #35-001] and 0.4 nM LANCE EU-W1024 labeled anti-mouse IgG antibody [Perkin-Elmer, product no. AD0077, alternatively a Terbium-cryptate-labeled anti-mouse IgG antibody from Cisbio Bioassays can be used]). The stopped reaction mixture was further incubated 1 h at 22° C. in order to allow the formation of complexes between peptides and detection reagents. Subsequently, the amount of product was evaluated by measurement of the resonance energy transfer from the Eu-chelate-antibody complex recognizing the Phosphoserine residue to the streptavidin-XL665 bound to the biotin moiety of the peptide. […] IC50 values were calculated by fitting the normalized inhibition data to a 4-parameter logistic equation (Minimum, Maximum, IC50, Hill; Y=Max+(Min−Max)/(1+(X/IC50) Hill)).
Background: Time-resolved FRET reads energy transfer from a long-lived donor to a nearby acceptor.
Turning to `COCc1cc(Nc2ccncc2OC)nc(-c2nn(Cc3c(F)cc(OCCO)cc3F)c3ccccc23)n1` [Example 2-12-49, 2-{3,5-difluoro-4-[(3-{4-(methoxymethyl)-6-[(3-methoxypyridin-4-yl)amino]pyrimidin-2-yl}-1H-indazol-1-yl)methyl]phenoxy}eth-anol], the IC50 (usually the point on the concentration scale where inhibition reaches its midpoint) worked out at 8.8 nM. As for `COCCOc1cc(F)c(Cn2nc(-c3ncc(C)c(Nc4ccncc4OC)n3)c3ccccc32)c(F)c1` [Example 2-2-47, 2-{1-[2,6-difluoro-4-(2-methoxyethoxy)benzyl]-1H-indazol-3-yl}-N-(3-methoxypyridin-4-yl)-5-methylpyrimidin-4-amine], the IC50 is 8.7 nM. Turning to `CCOc1cc(F)c(Cn2nc(-c3ncc(CCN)c(Nc4ccncc4Cl)n3)c3ccccc32)c(F)c1` [Example 2-9-21, 5-(2-aminoethyl)-N-(3-chloropyridin-4-yl)-2-[1-(4-ethoxy-2,6-difluorobenzyl)-1H-indazol-3-yl]pyrimidin-4-amine], the IC50 was determined as 13 nM. Consider `CCOc1cc(F)c(Cn2nc(-c3ncc(CC4CNC4)c(Nc4ccnc(C)n4)n3)c3ccccc32)c(F)c1` [Example 2-9-20, 5-(azetidin-3-ylmethyl)-2-[1-(4-ethoxy-2,6-difluorobenzyl)-1H-indazol-3-yl]-N-(2-methylpyrimidin-4-yl)pyrimidin-4-amine, salt with hydrochloric acid], for which the IC50 came out at 49 nM.

The assay is the same for the next values; noted with them: Biological Assay 1: Bub1 kinase assay median IC50, 10 μM ATP.
Molecule `COCCOc1cc(F)c(Cn2nc(-c3ncc(C4CCN(CCC(F)(F)F)CC4)c(Nc4ccncc4Cl)n3)c3ccccc32)c(F)c1` [Example 2-20-9, N-(3-chloropyridin-4-yl)-2-{1-[2,6-difluoro-4-(2-methoxyethoxy)benzyl]-1H-indazol-3-yl}-5-[1-(3,3,3-trifluoropropyl)piperidin-4-yl]pyrimidin-4-amine] came in with an IC50 of 220 nM. Consider `Cc1cc(Nc2nc(-c3nn(Cc4c(F)cc(OCCO)cc4F)c4ccccc34)nc3c2CCC(C)(C)C3)c(C)cn1` [Example 2-6-43, 2-{4-[(3-{4-[(2,5-dimethylpyridin-4-yl)amino]-7,7-dimethyl-5,6,7,8-tetrahydroquin-azolin-2-yl}-1H-indazol-1-yl)methyl]-3,5-difluorophenoxy} ethanol], for which the IC50 is 84 nM.

`CS(=O)(=O)Cc1cnc(-c2nn(Cc3c(F)cc(OCCO)cc3F)c3ccccc23)nc1N(CCO)c1ccncc1` [Example 2-4-4, 2-[(2-{1-[2,6-difluoro-4-(2-hydroxyethoxy)benzyl]-1H-indazol-3-yl}-5-[(methylsulfonyl)methyl]pyrimidin-4-yl)(pyridin-4-yl)amino]ethanol] showed an IC50 of 480 nM. On the same count and under the same terms, the same measure for `COCCOc1cc(F)c(Cn2nc(-c3nc4c(c(Nc5ccncc5Cl)n3)CNC4)c3ccccc32)c(F)c1` [Example 2-9-24, N-(3-chloropyridin-4-yl)-2-{1-[2,6-difluoro-4-(2-meth-oxyethoxy)benzyl]-1H-indazol-3-yl}-6,7-dihydro-5H-pyrrolo[3,4-d]pyrimidin-4-amine]: 38 nM; for `COCCOc1cc(F)c(Cn2nc(-c3nc4c(c(Nc5ccncc5OC)n3)CCCCC4)c3ccccc32)c(F)c1` [Example 2-12-70, 2-{1-[2,6-difluoro-4-(2-methoxyethoxy)benzyl]-1H-indazol-3-yl}-N-(3-methoxypyridin-4-yl)-6,7,8,9-tetrahydro-5H-cyclohepta[d]pyrimidin-4-amine]: 9.9 nM; for `COCCOc1cc(F)c(Cn2nc(-c3nc4c(c(Nc5ccncn5)n3)CNC4)c3ccccc32)c(F)c1` [Example 2-9-27, 2-{1-[2,6-difluoro-4-(2-methoxy-ethoxy)benzyl]-1H-indazol-3-yl}-N-(pyrimidin-4-yl)-6,7-dihydro-5H-pyrrolo[3,4-d]pyr-imidin-4-amine, salt with hydrochloric acid]: 20 nM. Regarding `COCCOc1cc(F)c(Cn2nc(-c3nc4c(c(Nc5ccncn5)n3)CCC4)c3ccccc32)c(F)c1` [Example 2-12-56, 2-{1-[2,6-difluoro-4-(2-methoxyethoxy)benzyl]-1H-indazol-3-yl}-N-(pyrimidin-4-yl)-6,7-dihydro-5H-cyclopenta[d]pyrimidin-4-amine], it took 7 nM to reach half-maximal inhibition (IC50). In turn, `CCOc1cc(F)c(Cn2nc(-c3nc4c(c(Nc5ccnc(C(F)F)c5)n3)CS(=O)(=O)C4)c3ccccc32)c(F)c1` [Example 2-19-14, N-[2-(difluoromethyl)pyridin-4-yl]-2-[1-(4-ethoxy-2,6-difluorobenzyl)-1H-indazol-3-yl]-5,7-dihydrothieno[3,4-d]pyrimidin-4-amine 6,6-dioxide] returned an IC50 of 460 nM. Regarding `CCOc1cc(F)c(Cn2nc(-c3ncc(CCCOC)c(Nc4ccncc4C(=O)O)n3)c3ccccc32)c(F)c1` [Example 2-2-10, 4-({2-[1-(4-ethoxy-2,6-difluorobenzyl)-1H-indazol-3-yl]-5-(3-methoxypropyl)pyrimidin-4-yl}amino)nicotinic acid], 20 nM corresponded to half-maximal inhibition (IC50). Same read-out and setting: the same measure for `CCOc1cc(F)c(Cn2nc(-c3ncc(CCNCC(F)(F)F)c(Nc4ccnc(NC(C)=O)c4)n3)c3ccccc32)c(F)c1` [Example 2-20-15, N-{4-[(2-[1-(4-ethoxy-2,6-difluorobenzyl)-1H-indazol-3-yl]-5-{2-[(2,2,2-trifluoroethyl)amino]ethyl}pyrimidin-4-yl)amino]pyridin-2-yl}acetamide]: 22 nM; for `COc1cnccc1Nc1nc(-c2nn(Cc3c(F)cc(OCCO)cc3F)c3ccccc23)nc2c1CCC(C)(C)C2` [Example 2-6-26, 2-{3,5-difluoro-4-[(3-{4-[(3-methoxypyridin-4-yl)amino]-7,7-dimethyl-5,6,7,8-tetrahydroquin-azolin-2-yl}-1H-indazol-1-yl)methyl]phenoxy}ethanol]: 42 nM. As to `COCCOc1cc(F)c(Cn2nc(-c3nc4c(c(Nc5ccnc(NC(C)=O)c5)n3)CCC(C)(C)C4)c3ccccc32)c(F)c1` [Example 2-15-12, N-{4-[(2-{1-[2,6-difluoro-4-(2-methoxyethoxy)benzyl]-1H-indazol-3-yl}-7,7-dimethyl-5,6,7,8-tetrahydroquinazolin-4-yl)amino]pyridin-2-yl}acetamide], the IC50 is 21 nM.

With `CCOc1cc(F)c(Cn2nc(-c3ncc(CCCCN4CC(F)(F)C4)c(Nc4ccncc4)n3)c3ccccc32)c(F)c1` [Example 2-2-20, 5-[4-(3,3-difluoroazetidin-1-yl)butyl]-2-[1-(4-ethoxy-2,6-difluorobenzyl)-1H-indazol-3-yl]-N-(pyridin-4-yl)pyrimidin-4-amine], the IC50 came to 58 nM. Consider `Nc1cc(Nc2nc(-c3nn(Cc4c(F)cc(OCCO)cc4F)c4ccccc34)nc3c2CCC3)ccn1` [Example 2-4-7, 2-{4-[(3-{4-[(2-aminopyridin-4-yl)amino]-6,7-dihydro-5H-cyclopenta[d]pyrimidin-2-yl}-1H-indazol-1-yl)methyl]-3,5-difluorophenoxy}ethanol], for which the IC50 was determined as 9.7 nM. Turning to `CCOc1cc(F)c(Cn2nc(-c3nc(C)cc(Nc4ccncc4)n3)c3ccccc32)c(F)c1` [Example 2-12-1, 2-[1-(4-ethoxy-2,6-difluorobenzyl)-1H-indazol-3-yl]-6-methyl-N-(pyridin-4-yl)pyrimidin-4-amine], the IC50 stood at 8.4 nM. The same measure, in the same setting: the result for `COc1cnccc1Nc1nc(-c2nn(Cc3c(F)cc(OCCO)cc3F)c3ccccc23)nc2c1CN(CC(F)(F)F)C2` [Example 2-6-41, 2-{3,5-difluoro-4-[(3-{4-[(3-methoxypyridin-4-yl)amino]-6-(2,2,2-trifluoroethyl)-6,7-dihydro-5H-pyrrolo[3,4-d]pyrimidin-2-yl}-1H-indazol-1-yl)methyl]phenoxy}ethanol] reads 14 nM; that for `CCOc1cc(F)c(Cn2nc(-c3nc4c(c(Nc5ccncc5)n3)CCN(Cc3ccccc3)C4)c3ccccc32)c(F)c1` [Example 2-12-15, 7-Benzyl-2-[1-(4-ethoxy-2,6-difluorobenzyl)-1H-indazol-3-yl]-N-(pyridin-4-yl)-5,6,7,8-tetrahydropyrido[3,4-d]pyrimidin-4-amine], 68 nM. Same read-out and setting: the same measure for `CCOc1cc(F)c(Cn2nc(-c3ncc(CCCSC)c(Nc4ccncc4)n3)c3ccccc32)c(F)c1` [Example 2-2-2, 2-[1-(4-ethoxy-2,6-difluorobenzyl)-1H-indazol-3-yl]-5-[3-(methylsulfanyl)propyl]-N-(pyridin-4-yl)pyrimidin-4-amine]: 12 nM; for `CCOc1cc(F)c(Cn2nc(-c3ncc(CS(C)(=O)=O)c(Nc4ccncc4)n3)c3ccccc32)c(F)c1` [Example 2-3-3, 2-[1-(4-ethoxy-2,6-difluorobenzyl)-1H-indazol-3-yl]-5-[(methylsulfonyl)methyl]-N-(pyridin-4-yl)pyrimidin-4-amine]: 8.9 nM. As for `CCOc1cc(F)c(Cn2nc(-c3ncc(CCCN4CCOCC4)c(Nc4ccncc4)n3)c3ccccc32)c(F)c1` [Example 2-2-13, 2-[1-(4-ethoxy-2,6-difluorobenzyl)-1H-indazol-3-yl]-5-[3-(morpholin-4-yl)propyl]-N-(pyridin-4-yl)pyrimidin-4-amine], the IC50 worked out at 15 nM.
